Drawing on PubChem BioAssay (NCI), this text covers TGI and GI50 for 6 compounds.

The structures appear in SMILES notation.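 Interpolation was linear, between the two tested concentrations surrounding the appropriate level; five concentrations were tested over 48 hours in 96-well plates. Abbreviation: GI50, concentration required for 50% inhibition of growth. TGI: total growth inhibition.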

Among the test systems are SF-268 CNS; SF-539 CNS; 786-0 renal; HCT-116 colon; UO-31 renal; SK-MEL-28 melanoma; MALME-3M melanoma; HCT-15 colon; OVCAR-8 ovarian; M14 melanoma.
What all share (assay): growth of human tumour cells (NCI), 48 h

With `CN(C)CCNC(=O)c1cccc(C(=O)Nc2ccccc2)c1[N+](=O)[O-]`, the TGI in the assay on SF-268 CNS, in the assay on SF-539 CNS, in the assay on 786-0 renal, in the assay on HCT-116 colon, in the assay on UO-31 renal and in the assay with SK-MEL-28 melanoma was over 100 µM throughout. For the same compound, the TGI with MALME-3M melanoma, in the assay with HCT-15 colon, in the assay with OVCAR-8 ovarian and with M14 melanoma was over 100 µM each time.

Turning to `CCN(CC)c1ccc(C(=N)c2ccc(N(CC)CC)cc2)cc1`, the GI50 is 0.602 µM in the assay with SF-268 CNS; 0.83 µM in the assay with SF-539 CNS; 0.646 µM in the assay on 786-0 renal; 0.323 µM in the assay with HCT-116 colon; 0.557 µM with UO-31 renal; 0.916 µM in the assay on SK-MEL-28 melanoma. The GI50 in the assay with MALME-3M melanoma is 0.714 µM; with HCT-15 colon, 0.416 µM; in the assay on OVCAR-8 ovarian, 0.905 µM; in the assay with M14 melanoma, 0.524 µM. Further, the TGI stood at 2.67 µM in the assay with SF-268 CNS; 2.43 µM with SF-539 CNS; 2.05 µM in the assay with 786-0 renal; 1.35 µM with HCT-116 colon; 2.64 µM in the assay with UO-31 renal; 2.81 µM in the assay with SK-MEL-28 melanoma. The TGI with MALME-3M melanoma came out at 2.48 µM; with HCT-15 colon it was 2.28 µM; in the assay with OVCAR-8 ovarian, 3.75 µM; in the assay with M14 melanoma, 1.83 µM.

`COc1cc2oc(-c3ccc(O)cc3)cc(=O)c2c(OC)c1OC`: the TGI in the assay on SF-268 CNS, with SF-539 CNS, with 786-0 renal, with HCT-116 colon, in the assay with UO-31 renal and in the assay on SK-MEL-28 melanoma was over 100 µM in each case. The TGI with MALME-3M melanoma, with HCT-15 colon, in the assay on OVCAR-8 ovarian and in the assay on M14 melanoma was over 100 µM each time.

As to `NCCCC[C@@H]1NC(=O)[C@H]2CCCN2C(=O)[C@H](Cc2ccccc2)NC(=O)[C@H](Cc2ccccc2)CNC1=O`, the GI50 with SF-268 CNS, in the assay on SF-539 CNS, with 786-0 renal, in the assay on HCT-116 colon, with UO-31 renal and in the assay with SK-MEL-28 melanoma was over 100 µM each time. The GI50 with MALME-3M melanoma, in the assay with HCT-15 colon, with OVCAR-8 ovarian and with M14 melanoma was over 100 µM throughout. The TGI in the assay with SF-268 CNS, in the assay on SF-539 CNS, with 786-0 renal, with HCT-116 colon, in the assay with UO-31 renal and in the assay with SK-MEL-28 melanoma was over 100 µM each time. For the same compound, the TGI in the assay with MALME-3M melanoma, in the assay with HCT-15 colon, with OVCAR-8 ovarian and in the assay on M14 melanoma was over 100 µM throughout.

`CN/N=C(/CCN1CCCC1)CC(c1ccccc1)c1c(O)c2ccccc2oc1=O` (stereo not given): the TGI in the assay on SF-268 CNS, in the assay on SF-539 CNS, in the assay on 786-0 renal, with HCT-116 colon, in the assay with UO-31 renal and in the assay with SK-MEL-28 melanoma was over 100 µM each time. The TGI in the assay with MALME-3M melanoma, with HCT-15 colon, with OVCAR-8 ovarian and with M14 melanoma was over 100 µM in each case.

As for `Cc1cc(C)nc(NS(=O)(=O)c2ccc(Nc3c4ccccc4nc4c(C(=O)Nc5ccc(S(=O)(=O)Nc6cc(C)on6)cc5)cccc34)cc2)n1`, the TGI in the assay on SF-268 CNS is 58 µM; in the assay with SF-539 CNS, 34.7 µM; in the assay with 786-0 renal it was 34.8 µM; in the assay on HCT-116 colon, 31.2 µM; in the assay with UO-31 renal, 63.2 µM; in the assay on SK-MEL-28 melanoma, 52.3 µM. The TGI in the assay with MALME-3M melanoma was 49 µM; in the assay on HCT-15 colon it was over 100 µM; with OVCAR-8 ovarian, 39.3 µM; with M14 melanoma, 41.7 µM.
